Laboratory results: the supplement of paper PMC11424490

How the values were obtained:
NCI-H2122 = assay: combination cScore with sotorasib (Bliss gap around IC50) (%PoC); higher = stronger additive effect
Description: (§1)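 Combination screen of 179 inhibitors with the KRAS G12C inhibitor sotorasib (AMG510) in dose matrices, CellTiter-Glo readout in NCI-H2122 (72 h), SW837 (144 h) and NCI-H358 cells. The cScore is the mean Bliss-independence gap (expected minus observed viability, in %PoC) over a 3x3 field around the IC50s of both drugs. Positive means additive, and >~10 is stated as clear additive.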

SW837 = assay: as above
Description: as §1

For `CC(C)(C(=O)NCC(F)(F)C(F)(F)F)C(=O)N[C@@H]1C(=O)Nc2ccccc2-c2ccccc21` + C=CC(=O)N1CCN(c2nc(=O)n(-c3c(C)ccnc3C(C)C)c3nc(-c4c(O)cccc4F)c(F)cc23)[C@@H](C)C1 [sotorasib], the “combination cScore with sotorasib” value (NCI-H2122) was 2.56 and the “combination cScore with sotorasib” value (SW837) was 21.5.
With `NC(=O)c1ccc(-c2nc(-c3ccccn3)c(-c3ccc4c(c3)OCO4)[nH]2)cc1` + C=CC(=O)N1CCN(c2nc(=O)n(-c3c(C)ccnc3C(C)C)c3nc(-c4c(O)cccc4F)c(F)cc23)[C@@H](C)C1 [sotorasib] the “combination cScore with sotorasib” value (NCI-H2122) was 3.33 and the “combination cScore with sotorasib” value (SW837) was 4.91.
For `c1ccc(-c2nn3c(c2-c2ccnc4cc(OCCN5CCOCC5)ccc24)CCC3)nc1` + C=CC(=O)N1CCN(c2nc(=O)n(-c3c(C)ccnc3C(C)C)c3nc(-c4c(O)cccc4F)c(F)cc23)[C@@H](C)C1 [sotorasib], the “combination cScore with sotorasib” value (NCI-H2122) was 8.94 and the “combination cScore with sotorasib” value (SW837) was 8.58.
With `CC1(C)CCC(CN2CCN(c3ccc(C(=O)NS(=O)(=O)c4ccc(NCC5CCOCC5)c([N+](=O)[O-])c4)c(Oc4cnc5[nH]ccc5c4)c3)CC2)=C(c2ccc(Cl)cc2)C1` [ABT-199] + C=CC(=O)N1CCN(c2nc(=O)n(-c3c(C)ccnc3C(C)C)c3nc(-c4c(O)cccc4F)c(F)cc23)[C@@H](C)C1 [sotorasib] the “combination cScore with sotorasib” value (NCI-H2122) was 11.2 and the “combination cScore with sotorasib” value (SW837) was -2.18.
In the case of `CO[C@H]1/C=C/C[C@H](C)[C@@H](C)S(=O)(=O)NC(=O)c2ccc3c(c2)N(C[C@@H]2CC[C@H]21)C[C@@]1(CCCc2cc(Cl)ccc21)CO3` [AMG176] + C=CC(=O)N1CCN(c2nc(=O)n(-c3c(C)ccnc3C(C)C)c3nc(-c4c(O)cccc4F)c(F)cc23)[C@@H](C)C1 [sotorasib], the “combination cScore with sotorasib” value (NCI-H2122) is reported as 17.3 and the “combination cScore with sotorasib” value (SW837) is reported as 2.13.
With `COc1cc(OC2CCN(C)CC2)ccc1Nc1ncc2c(n1)n(C1CCCC1)c(=O)n2C` [AZ3146] + C=CC(=O)N1CCN(c2nc(=O)n(-c3c(C)ccnc3C(C)C)c3nc(-c4c(O)cccc4F)c(F)cc23)[C@@H](C)C1 [sotorasib] the “combination cScore with sotorasib” value (NCI-H2122) was 4.43 and the “combination cScore with sotorasib” value (SW837) was 19.4.
In the case of `Cc1cc(Nc2nc(N[C@@H](C)c3ncc(F)cn3)ncc2Cl)[nH]n1` [AZD-1480] + C=CC(=O)N1CCN(c2nc(=O)n(-c3c(C)ccnc3C(C)C)c3nc(-c4c(O)cccc4F)c(F)cc23)[C@@H](C)C1 [sotorasib], the “combination cScore with sotorasib” value (NCI-H2122) is reported as 5.41 and the “combination cScore with sotorasib” value (SW837) is reported as -5.71.
In the case of `NC(=O)Nc1cc(-c2cccc(F)c2)sc1C(=O)N[C@H]1CCCNC1` [AZD-7762] + C=CC(=O)N1CCN(c2nc(=O)n(-c3c(C)ccnc3C(C)C)c3nc(-c4c(O)cccc4F)c(F)cc23)[C@@H](C)C1 [sotorasib], the “combination cScore with sotorasib” value (NCI-H2122) is reported as 2.45 and the “combination cScore with sotorasib” value (SW837) is reported as 6.36.
With `COc1cc2cc(c1Cl)N(C)C(=O)C[C@H](OC(=O)C(C)C)[C@]1(C)O[C@@H]1[C@H](C)[C@@H]1C[C@@](O)(NC(=O)O1)[C@H](OC)/C=C/C=C(\C)C2` [Ansamitocin P3] + C=CC(=O)N1CCN(c2nc(=O)n(-c3c(C)ccnc3C(C)C)c3nc(-c4c(O)cccc4F)c(F)cc23)[C@@H](C)C1 [sotorasib] the “combination cScore with sotorasib” value (NCI-H2122) was 5.88 and the “combination cScore with sotorasib” value (SW837) was -0.32.
In the case of `Cc1ncc([N+](=O)[O-])n1CCOC(=O)NC(Nc1ncccn1)C(Cl)(Cl)Cl` (centres undefined) [Apcin] + C=CC(=O)N1CCN(c2nc(=O)n(-c3c(C)ccnc3C(C)C)c3nc(-c4c(O)cccc4F)c(F)cc23)[C@@H](C)C1 [sotorasib], the “combination cScore with sotorasib” value (NCI-H2122) is reported as -0.45 and the “combination cScore with sotorasib” value (SW837) is reported as 4.14.
`Nc1ncn([C@@H]2O[C@H](CO)[C@@H](O)[C@H]2O)c(=O)n1` [Azacitidine] + C=CC(=O)N1CCN(c2nc(=O)n(-c3c(C)ccnc3C(C)C)c3nc(-c4c(O)cccc4F)c(F)cc23)[C@@H](C)C1 [sotorasib] was tested, and the “combination cScore with sotorasib” value (NCI-H2122) was 3.93 and the “combination cScore with sotorasib” value (SW837) was 18.6.
`CCN1CCN(c2ccc(Nc3cc(N(C)C(=O)Nc4c(Cl)c(OC)cc(OC)c4Cl)ncn3)cc2)CC1` [BGJ398] + C=CC(=O)N1CCN(c2nc(=O)n(-c3c(C)ccnc3C(C)C)c3nc(-c4c(O)cccc4F)c(F)cc23)[C@@H](C)C1 [sotorasib] was tested, and the “combination cScore with sotorasib” value (NCI-H2122) was 2.52 and the “combination cScore with sotorasib” value (SW837) was 12.1.
